Substitutions are numbered along the chain they refer to.

One assay addresses T1, mutant TNF-R1 (Homo sapiens, UniProt P19438, F141E/Q111E).
T1 construct: The ectodomain of wild type TNF receptor 1 was obtained by PCR from pKP13; made in house
T1 sequence (P19438 30-211 Q111E/F141E limits assumed): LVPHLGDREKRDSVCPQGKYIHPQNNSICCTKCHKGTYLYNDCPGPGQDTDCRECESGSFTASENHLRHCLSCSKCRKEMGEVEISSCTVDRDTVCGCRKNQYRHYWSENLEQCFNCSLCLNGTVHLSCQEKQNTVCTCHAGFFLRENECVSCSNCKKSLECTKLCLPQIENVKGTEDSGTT
Nature of the assay: Isothermal titration calorimetry, binding to mutant TNF-R1 (82E, 112E). The following applies: ITC, TNF-R1 mutated to 82E and 112E. The source says: The ectodomain of wild type TNF receptor 1 was obtained by PCR from pKP13 (as described in Beutler et al., Annu. Rev. Biochem. 57, 505-518 (1988)) with 5′ primer AAAAAACATATGTACCCCTCAGGGGTTATTGG (SEQ ID NO:2) and 3′ primer CCGCTCGAGTCAATGATGATG ATGATG ATGTGTGGTGCCTGAGTCCTCAG, (SEQ ID NO:3) and constructed into PET21 (Novagen, San Diego, Calif.) between Nde1 and XhoT, verified by sequencing. Mutant TNF receptor 1 was obtained from site-directed mutagenesis by using a QuikChange mutagenesis kit (Stratagene, La Jolla, Calif.). The plasmid was then transformed into Origami™ (DE3) (Novagen, San Diego, Calif.). The cells were grown until A600 was 0.6 and were induced by addition of 0.2 mM of IPTG. The cells were then induced for 3 h and harvested by centrifugation at 3500 rpm for 10 min. The wild type and mutant TNF-R1 were all expressed in the inclusion bodies of the cells and were extracted and refolded as described in Lin et al., Biotechniques 11, 748 (December 1991). […]
The binding thermodynamics of inhibitors to the TNF receptor was measured by isothermal titration calorimetry (ITC) using a high-precision VP-ITC titration calorimetric system (MicroCal Inc, Northampton, Mass.). […] Data were analyzed and fitted using the data analysis software supplied by MicroCal (Origin version 5.0).
Background: In ITC the heat of successive injections is recorded.

For a further assay, the target named is T2, TNF-R1 (Homo sapiens, UniProt P19438).
T2 construct: The ectodomain of wild type TNF receptor 1 was obtained by PCR from pKP13; made in house
T2 sequence (P19438 30-211 limits assumed): T1 sequence (P19438 30-211 Q111E/F141E limits assumed) with E82Q, E112F
Nature of the assay: Acrylamide quenching of intrinsic tryptophan fluorescence of TNF-R1 (Stern-Volmer). The note with it: test compound 20 μM, 5 μM TNF-R1; TNF-R1 alone 14.4±0.2 M^−1. The format is binding. Here is the method: The residue W107 in the WP9 loop fluoresces around 340 nm. In this set of experiments, the resultant concentration of quencher ranged up to 0.25 M, quenching 77.4% of the total intrinsic fluorescence of TNF-R1. […] Thus binding of 1-9 to the receptor changed the disposition of tryptophan-107.
Quenching experiments with acrylamide were performed in stirred cells, at 25° C., titrating from a stock of 1 M acrylamide by adding 2.5 μl of acrylamide each time. Recombinant TNF-R1 were at the concentration of 5 μM in 1% DMSO. Tryptophan emission, monitored at 340 nm, was observed using 295 nm excitation. Intensity data following quencher additions were averaged over a 10-sec collection and were corrected for background emission (paired control lacking of protein). Intensities, F, at given quencher concentration, [Q], were analyzed using the Stern-Volmer equation, F0/F=1+KS.V·[Q] • Where F0 is the emission intensity of the protein in the absence of quencher, and KS.V is the Stern-Volmer constant for quenching, given by the slope when data are plotted as Fo/F versus [Q].
For synthesized small molecules, a test compound at 20 μM was pre-incubated with 5 μM TNF-R1 in 1% DMSO for 30 min, and titrated with 1 M acrylamide the same way as TNF-R1 alone. The F0/F was analyzed using the Stern-Volmer equation, and two slopes from TNF receptor and from TNF receptor with the test compound were compared.

The test system of assay [1] is EGF-signaling in NE91 cells. Kind of assay: Effect on EGF-signaling in NE91 cells (western blot). The format is cell-based. The note with it: 2 hr treatment, EGF 100 ng/mL. The procedure: To verify the effects of I-9 were specific to TNF-α signaling, the effect of I-9 on EGF-signaling was tested in NE91 cells (American Type Culture Collection, Manassas, Va.). NE91 cells were cultured in RPMI medium containing 10% FBS in 6-well plate at the density of 1×10^6/well for 12 hr, followed by 2 hr treatment with or without I-9. Cells were then stimulated with EGF at 100 ng/mL for the indicated time. Cells were then lysed and analyzed by western blotting in the same manner as described above for analysis of TNF-α signaling in L929 cells.
A general note: A western blot detects proteins with antibodies after separation by electrophoresis.

As to `CC(=O)Oc1ccc(C(C)(c2ccc(OC(C)=O)cc2)c2ccc(OC(C)=O)cc2)cc1` [Compound I-9, 1,1,1-Tris-(4-acetoxyphenyl)ethane], the “binding to the mutant receptor” value at mutant TNF-R1 is listed as “no longer bound”. The “Stern-Volmer constant for TNF-R1 quenching by acrylamide in the presence of the test compound” value at TNF-R1 amounted to 11.6 ± 0.2 M⁻¹. Also, the “changes in EGF-induced signaling” value in assay [1] is recorded as “failed to induce changes”.

The values are drawn from patent publication US9096607B2, “Tumor necrosis factor inhibitors” (THE TRUSTEES OF THE UNIVERSITY OF PENNSYLVANIA, priority 2005, dated 2015).
